# Experimental data taken from patent US20100015249A1, “Antitumor agent containing 6'-amidino-2'-naphthyl 4-guanidinobenzoate or salt thereof” (priority 2005, published 2010).
# What was measured:
# NF-κB [1] = experiment: Gel shift assay of active NF-κB in nuclear extracts; assay type: cell-based, human
# Description: The human pancreas cancer cell line MDAPanc-28 was treated with various concentrations of FUT to examine the effect on NF-κB activation. NF-κB is constantly activated in the MDAPanc-28 cell line. A gel shift assay with a κB probe was performed using the nuclear extracts from cells treated with various concentrations of FUT to detect NF-κB which was activated and translocated into the nucleus. More specifically, 10 μg of nuclear extracts were reacted with 1 μg of poly (dI-dC) (Pharmacia, Picataway, N.J.) in binding buffer (75 mM NaCl, 15 mM Tris-HCl, pH 7.5, 1.5 mM dithiothreitol, 25% glycerol and 20 mg/ml bovine serum albumin) for 30 minutes at 4° C. ^32P-labeled oligonucleotide probes (SEQ ID Nos: 1 to 4) were then added for reaction for 20 minutes at room temperature and electrophoresis was performed (4% polyacrylamide gel, 0.25×TBE; 22.5 mM Tris, 22.5 mM borate and 500 μM EDTA, pH 8.0). After drying at 80° C. for 1 hour, the gel was exposed to Kodak film (Eastman Kodak Co., Rochester, N.Y.) at −80° C. for detection. Oct-1 was used as a positive control.
# caspase 8 = experiment: Western blot of caspase 8 activation; assay type: cell-based, human
# Description: (§1) The present inventors examined whether apoptosis signaling cascade is triggered with the elevation of TNFRI expression induced by FUT treatment, using caspase 8 as an indicator. Cytoplasmic fraction was prepared from the human pancreas cancer cell line MDAPanc-28 treated with various concentrations of FUT for 24 hours. Western blot was performed and subjected to the detection with anti-caspase 8 antibody (Santa Cruz Biotechnology) (FIG. 6-a). Western blot was performed to examine temporal changes in the expression of caspase 8, p-FADD, Bid and jBid under a constant concentration of FUT (80 μg/ml) at short intervals from 0 to 24 hours of treatment (FIGS. 6-b, 6-c and 6-d). Anti-FADD antibody was obtained from Santa Cruz Biotechnology and anti-Bid antibody was obtained from BD Pharmingen.
# (§2) After the following treatment on the human pancreas cancer cell line MDAPanc-28, plasmatic compartment was prepared and Western blot was performed to examine the expression of phosphorylated FADD, caspase 8, NF-κB and IκBα. […] The same was true for IκBα expression (FIG. 7-c).
# FADD = experiment: Western blot of FADD phosphorylation; assay type: cell-based, human
# Description: as §1, §2
# jBid = experiment: Western blot of Bid / jBid; assay type: cell-based, human; settings: MDAPanc-28, FUT 80 μg/ml, 0 to 24 hours
# Description: as §1, with “[…]-28” for “MDAPanc-28”
# NF-κB [2] = experiment: TNF-α-activated NF-κB after FUT treatment; assay type: cell-based, human; settings: MDAPanc-28, FUT 80 μg/ml, TNF-α 5 ng/ml
# Description: After the following treatment on the human pancreas cancer cell line […]-28, plasmatic compartment was prepared and Western blot was performed to examine the expression of phosphorylated FADD, caspase 8, NF-κB and IκBα. […] The same was true for IκBα expression (FIG. 7-c).
# NF-κB [3] = experiment: Gel shift assay of gemcitabine-induced NF-κB activation; assay type: cell-based, human; settings: MDAPanc-28, pretreatment 3 hours then gemcitabine 3 hours
# Description: At the same time, the present inventors also made a comparison with the other NF-κB inhibitors PS1145 and PS341. […] Subsequently, a gel shift assay was performed to examine the effect on NF-κB activation.
# Murine fiber cells = experiment: Effect on survival rate of normal cells; assay type: cell-based; settings: 80 μg/ml
# Excerpt: Therefore, the present inventors next examined the effect of FUT treatment on normal cells. Murine fiber cells were used as normal cells.
# MMP-2 = experiment: Western blot of MMP-2 expression; assay type: cell-based, human; settings: MDAPanc-28 cytoplasmic fraction, 0 or 80 μg/ml FUT
# Description: (§3) Cytoplasmic fraction was prepared from the human pancreas cancer cell line […]-28 treated with either 0 μg/ml or 80 μg/ml of FUT. Western blot was performed for the obtained cytoplasmic proteins to examine MMP-2 and MMP-9 expression. More specifically, the experiment was performed by the method described in Example 2. Rabbit polyclonal anti-MMP-2 antibody, goat polyclonal anti-MMP-9 antibody and mouse anti-B-actin antibody (Santa Cruz Biotechnology, Inc.) were used for detection.
# MMP-9 = experiment: Western blot of MMP-9 expression; assay type: cell-based, human; settings: MDAPanc-28 cytoplasmic fraction, 0 or 80 μg/ml FUT
# Description: as §3
# [4] = system: human pancreas cancer cell line MDAPanc-28; experiment: Matrigel infiltration assay; assay type: cell-based; settings: MDAPanc-28 pretreated with 80 μg/ml FUT for 24 hours, 22-hour incubation in matrigel-coated chamber
# Description: A matrigel infiltration assay was performed to examine an inhibitory effect on infiltration in the human pancreas cancer cell line MDAPanc-28 by FUT treatment. Cells treated with 80 μg/ml of FUT for 24 hours and untreated cells were respectively inoculated to a matrigel-coated chamber at a concentration of 20000 cells per well for a 22-hour incubation at 37° C. either in the presence or absence of 80 μg/ml of FUT. The numbers of infiltrated cells were then counted under the microscope after Wright-Giemsa staining according to the method generally known.
# [5] = MDAPanc-28, FUT 80 μg/ml pretreatment then TNF-α 5 ng/ml 24 hours, compared to FUT alone
# [6] = MDAPanc-28, FUT 80 μg/ml, 0 to 24 hours
structure (smiles),measurement,setting,value
"N=C(N)c1ccc2cc(OC(=O)c3ccc(N=C(N)N)cc3)ccc2c1 [FUT, 6-amidino-2-naphthyl p-guanidinobenzoate dimethanesulfonate]",NF-κB activation over time,"NF-κB [1]; MDAPanc-28, time after addition of FUT up to 48 hours",inhibited overtime up to 24 hours after addition of FUT and then was restored to a steady-state level at 48 hours
same,NF-κB activation,"NF-κB [1]; MDAPanc-28, various concentrations of FUT",inhibited NF-κB activation in a concentration-dependent manner
same,caspase 8 activation with TNF-α stimulation,caspase 8; [5],enhanced FADD phosphorylation and caspase 8 activation
same,caspase 8 activation over time,caspase 8; [6],later on promoted caspase 8 activation
same,caspase 8 activation,"caspase 8; MDAPanc-28, various concentrations of FUT for 24 hours",activated by FUT in a concentration-dependent manner
same,caspase 8 activation in TNFRI-downregulated cells,"caspase 8; cells with TNFRI expression downregulated using siRNA, after FUT treatment",nor caspase 8 activation
same,FADD phosphorylation with TNF-α stimulation,FADD; [5],enhanced FADD phosphorylation
same,FADD phosphorylation,FADD; [6],promoted FADD phosphorylation overtime
same,"expression of JBid, the degradation product of Bid",jBid,overtime increase in the expression of JBid
same,TNF-α-activated NF-κB,NF-κB [2],inhibits TNF-α-activated NF-κB
same,effect on gemcitabine-induced activation of NF-κB,NF-κB [3],had an inhibitory effect on gemcitabine-induced activation of NF-κB
same,"inhibitory effect on gemcitabine-induced NF-κB activation compared among FUT, PS1145 and PS341",NF-κB [3],most significant
same,cell survival rate of normal cells,Murine fiber cells,had no effect on cell survival rate
same,MMP-2 expression,MMP-2,inhibited by FUT in a concentration-dependent manner
same,MMP-9 expression,MMP-9,inhibited by FUT in a concentration-dependent manner
same,infiltration (number of infiltrated cells),[4],significant inhibitory effect on infiltration
